Data: patent US9663513B2, “Pyrimidine PDE10 inhibitors” (Merck Sharp & Dohme Corp., priority 2012, dated 2017)

These molecules were tested against human PDE10A2 (Homo sapiens (Human), UniProt Q9Y233) (assay: PDE10 fluorescence polarization (IMAP FP) inhibition assay). Conditions: human PDE10A2 from transfected AD293 cells; FAM-labeled cAMP 50 nM; apparent inhibition constant; read-out: PDE10A Ki.
Format: biochemical
Summary of the method: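 Cytoplasmic lysate of AD293 cells transiently expressing human PDE10A2 (enzyme level giving 20% conversion) incubated with 50 nM FAM-cAMP in pH 7.2 Tris/MgCl2 buffer, 30 min at room temperature. IMAP binding solution added, FP read after ≥1 h; 10-point 3-fold compound titrations fitted to a four-parameter equation.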

Sequence of human PDE10A2 (Q9Y233 267-1055): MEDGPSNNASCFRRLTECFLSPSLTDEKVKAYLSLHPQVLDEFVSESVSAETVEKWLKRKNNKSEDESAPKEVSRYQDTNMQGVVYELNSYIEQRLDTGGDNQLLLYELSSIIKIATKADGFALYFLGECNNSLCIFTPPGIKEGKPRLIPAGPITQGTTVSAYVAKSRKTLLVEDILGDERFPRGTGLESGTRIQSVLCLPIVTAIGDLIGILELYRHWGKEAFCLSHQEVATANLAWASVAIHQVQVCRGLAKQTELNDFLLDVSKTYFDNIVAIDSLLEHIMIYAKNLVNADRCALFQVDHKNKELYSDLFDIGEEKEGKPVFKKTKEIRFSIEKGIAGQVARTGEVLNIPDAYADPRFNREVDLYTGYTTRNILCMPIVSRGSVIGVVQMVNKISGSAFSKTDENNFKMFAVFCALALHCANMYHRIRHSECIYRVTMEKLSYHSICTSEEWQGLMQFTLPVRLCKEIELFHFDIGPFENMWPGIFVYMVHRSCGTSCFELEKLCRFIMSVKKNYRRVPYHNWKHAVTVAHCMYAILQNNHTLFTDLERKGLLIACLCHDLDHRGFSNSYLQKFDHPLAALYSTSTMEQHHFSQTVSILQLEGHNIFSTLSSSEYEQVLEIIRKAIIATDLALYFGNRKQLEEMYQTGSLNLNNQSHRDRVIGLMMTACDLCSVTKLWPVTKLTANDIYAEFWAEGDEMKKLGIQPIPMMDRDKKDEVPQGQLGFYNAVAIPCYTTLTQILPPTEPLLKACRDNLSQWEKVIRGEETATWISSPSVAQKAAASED

| Ki [pM] | SMILES |
| --- | --- |
| 400 | Cc1ccc([C@H]2C[C@@H]2COc2nc(C)ncc2-c2ccncc2C)nc1 [Example 147, 2-methyl-4-(((1S,2S)-2-(5-methylpyridin-2-yl)cyclopropyl)methoxy)-5-(3-methylpyridin-4-yl)pyrimidine] |
| 980 | Cc1ccc([C@H]2C[C@@H]2COc2nc(C)ncc2-c2ccc(C(C)O)nc2)nc1 (stereo partly drawn) [Example 148, 1-(5-(2-methyl-4-(((1S,2S)-2-(5-methylpyridin-2-yl)cyclopropyl)methoxy)pyrimidin-5-yl)pyridin-2-yl)ethanol] |
| 140 | Cc1ccc([C@H]2C[C@@H]2COc2nc(C)ncc2-c2ccc(C(C)O)nc2)nc1 (stereo partly drawn) [Example 149, 1-(5-(2-methyl-4-(((1S,2S)-2-(5-methylpyridin-2-yl)cyclopropyl)methoxy)pyrimidin-5-yl)pyridin-2-yl)ethanol] |
| 470 | COc1cnccc1-c1cnc(C)nc1OC[C@H]1C[C@@H]1c1ccc(C)cn1 [Example 150, 5-(3-methoxypyridin-4-yl)-2-methyl-4-(((1S,2S)-2-(5-methylpyridin-2-yl)cyclopropyl)methoxy)pyrimidine] |
| 10 | Cc1cc(-c2cnc(C)nc2OC[C@H]2C[C@@H]2c2ccc3ccccc3n2)ccn1 [Example 153, 2-((1S,2S)-2-((2-methyl-5-(2-methylpyridin-4-yl)pyrimidin-4-yloxy)methyl)cyclopropyl)quinoline] |
| 10 | Cc1ncc(-c2ccc(CO)nc2)c(OC[C@H]2C[C@@H]2c2ccc3ccccc3n2)n1 [Example 154, (5-(2-methyl-4-(((1S,2S)-2-(quinolin-2-yl)cyclopropyl)methoxy)pyrimidin-5-yl)pyridin-2-yl)methanol] |
| 10 | Cc1ncc(-c2cccnc2)c(OC[C@H]2C[C@@H]2c2ccc3ccccc3n2)n1 [Example 155, 2-((1S,2S)-2-((2-methyl-5-(pyridin-3-yl)pyrimidin-4-yloxy)methyl)cyclopropyl)quinoline] |
| 120 | Cc1ncc(-c2ccc(C(F)(F)F)nc2)c(OC[C@H]2C[C@@H]2c2ccc3ccccc3n2)n1 [Example 156, 2-((1S,2S)-2-((2-methyl-5-(6-(trifluoromethyl)pyridin-3-yl)pyrimidin-4-yloxy)methyl)cyclopropyl)quinoline] |
| 20 | Cc1ncc(-c2ccc(C(C)(C)O)nc2)c(OC[C@H]2C[C@@H]2c2ccc3ccccc3n2)n1 [Example 157, 2-(5-(2-methyl-4-(((1S,2S)-2-(quinolin-2-yl)cyclopropyl)methoxy)pyrimidin-5-yl)pyridin-2-yl)propan-2-ol] |
| 560 | Cc1cccc([C@H]2C[C@@H]2COc2nc(C)ncc2-c2cn(C)nc2C(C)O)n1 (stereo partly drawn) [Example 158, 1-(1-methyl-4-(2-methyl-4-(((1S,2S)-2-(6-methylpyridin-2-yl)cyclopropyl)methoxy)pyrimidin-5-yl)-1H-pyrazol-3-yl)ethanol] |
| 1470 | Cc1ccnc([C@H]2C[C@@H]2COc2nc(C)ncc2-c2cn(C)nc2C(C)O)c1 (stereo partly drawn) [Example 159, 1-(1-methyl-4-(2-methyl-4-(((1S,2S)-2-(4-methylpyridin-2-yl)cyclopropyl)methoxy)pyrimidin-5-yl)-1H-pyrazol-3-yl)ethanol] |
| 2920 | Cc1ccnc([C@H]2C[C@@H]2COc2nc(C)ncc2-c2cn(C)nc2C(C)O)c1 (stereo partly drawn) [Example 160, 1-(1-methyl-4-(2-methyl-4-(((1S,2S)-2-(4-methylpyridin-2-yl)cyclopropyl)methoxy)pyrimidin-5-yl)-1H-pyrazol-3-yl)ethanol] |
| 2280 | Cc1cccc([C@H]2C[C@@H]2COc2nc(C)ncc2-c2cn(C)nc2C(C)O)n1 (stereo partly drawn) [Example 161, 1-(1-methyl-4-(2-methyl-4-(((1S,2S)-2-(6-methylpyridin-2-yl)cyclopropyl)methoxy)pyrimidin-5-yl)-1H-pyrazol-3-yl)ethanol] |
| 130 | CCc1ccc([C@H]2C[C@@H]2COc2nc(C)ncc2-c2cn(C)nc2C(C)O)nc1 (stereo partly drawn) [Example 162, 1-(4-(4-(((1S,2S)-2-(5-ethylpyridin-2-yl)cyclopropyl)methoxy)-2-methylpyrimidin-5-yl)-1-methyl-1H-pyrazol-3-yl)ethanol] |
| 240 | CCc1ccc([C@H]2C[C@@H]2COc2nc(C)ncc2-c2cn(C)nc2C(C)O)nc1 (stereo partly drawn) [Example 163, 1-(4-(4-(((1S,2S)-2-(5-ethylpyridin-2-yl)cyclopropyl)methoxy)-2-methylpyrimidin-5-yl)-1-methyl-1H-pyrazol-3-yl)ethanol] |
| 1480 | Cc1ccc([C@H]2C[C@@H]2COc2nc(C)ncc2-c2cn(C)nc2C(O)C(F)F)nc1 (stereo partly drawn) [Example 170, 2,2-difluoro-1-(1-methyl-4-(2-methyl-4-(((1S,2S)-2-(5-methylpyridin-2-yl)cyclopropyl)methoxy)pyrimidin-5-yl)-1H-pyrazol-3-yl)ethanol] |

| Ki [pM] | SMILES |
| --- | --- |
| 1190 | COc1ccc([C@H]2C[C@@H]2COc2nc(C)ncc2-c2ccc(C#N)cc2)nc1 [Example 171, 4-(4-(((1S,2S)-2-(5-methoxypyridin-2-yl)cyclopropyl)methoxy)-2-methylpyrimidin-5-yl)benzonitrile] |
| 290 | COc1ccc([C@H]2C[C@@H]2COc2nc(C)ncc2-c2ccc(C(=O)O)cc2)nc1 [Example 172, 4-(4-(((1S,2S)-2-(5-methoxypyridin-2-yl)cyclopropyl)methoxy)-2-methylpyrimidin-5-yl)benzoic acid] |
| 14800 | Cc1cccc([C@H]2C[C@@H]2COc2nc(C)ncc2-c2ccc(C(C)(C)O)nc2)n1 [Example 176, 2-(5-(2-methyl-4-(((1S,2S)-2-(6-methylpyridin-2-yl)cyclopropyl)methoxy)pyrimidin-5-yl)pyridin-2-yl)propan-2-ol] |
| 17800 | Cc1ncc(-c2ccc(C(C)(C)O)nc2)c(OC[C@H]2C[C@@H]2c2ccc(C#N)cn2)n1 [Example 182, 6-((1S,2S)-2-((5-(6-(2-hydroxypropan-2-yl)pyridin-3-yl)-2-methylpyrimidin-4-yloxy)methyl)cyclopropyl)nicotinonitrile] |
| 13500 | Cc1ncc(-c2ccc(C(C)(C)O)nc2)c(OC[C@H]2C[C@@H]2c2ccc(C(F)(F)F)cn2)n1 [Example 183, 2-(5-(2-methyl-4-(((1S,2S)-2-(5-(trifluoromethyl)pyridin-2-yl)cyclopropyl)methoxy)pyrimidin-5-yl)pyridin-2-yl)propan-2-ol] |
| 2810 | Cc1ccc([C@H]2C[C@@H]2COc2nc(C)ncc2C2CCC3(CC2)OCCO3)nc1 [Example 184, 2-methyl-4-(((1S,2S)-2-(5-methylpyridin-2-yl)cyclopropyl)methoxy)-5-(1,4-dioxaspiro[4.5]decan-8-yl)pyrimidine] |
| 3730 | Cc1ccc([C@H]2C[C@@H]2COc2nc(C)ncc2C2CCC(=O)CC2)nc1 [Example 185, 4-(2-methyl-4-(((1S,2S)-2-(5-methylpyridin-2-yl)cyclopropyl)methoxy)pyrimidin-5-yl)cyclohexanone] |
| 6670 | Cc1cccc([C@H]2C[C@@H]2COc2nc(C)ncc2C2CCC3(CC2)OCCO3)n1 [Example 186, 2-methyl-4-(((1S,2S)-2-(6-methylpyridin-2-yl)cyclopropyl)methoxy)-5-(1,4-dioxaspiro[4.5]decan-8-yl)pyrimidine] |
| 18600 | Cc1cccc([C@H]2C[C@@H]2COc2nc(C)ncc2C2CCC(=O)CC2)n1 [Example 187, 4-(2-methyl-4-(((1S,2S)-2-(6-methylpyridin-2-yl)cyclopropyl)methoxy)pyrimidin-5-yl)cyclohexanone] |
| 2840 | COc1ccc([C@H]2C[C@@H]2COc2nc(C)ncc2C2CCC3(CC2)OCCO3)nc1 [Example 188, 4-(((1S,2S)-2-(5-methoxypyridin-2-yl)cyclopropyl)methoxy)-2-methyl-5-(1,4-dioxaspiro[4.5]decan-8-yl)pyrimidine] |
| 3750 | COc1ccc([C@H]2C[C@@H]2COc2nc(C)ncc2C2CCC(=O)CC2)nc1 [Example 189, 4-(4-(((1S,2S)-2-(5-methoxypyridin-2-yl)cyclopropyl)methoxy)-2-methylpyrimidin-5-yl)cyclohexanone] |
| 60 | Cc1ncc(C2CCC3(CC2)OCCO3)c(OC[C@H]2C[C@@H]2c2ccc3ccccc3n2)n1 [Example 190, 2-((1S,2S)-2-((2-methyl-5-(1,4-dioxaspiro[4.5]decan-8-yl)pyrimidin-4-yloxy)methyl)cyclopropyl)quinoline] |
| 60 | Cc1ncc(C2CCC(=O)CC2)c(OC[C@H]2C[C@@H]2c2ccc3ccccc3n2)n1 [Example 191, 4-(2-methyl-4-(((1S,2S)-2-(quinolin-2-yl)cyclopropyl)methoxy)pyrimidin-5-yl)cyclohexanone] |
| 10 | Cc1ncc([C@H]2CC[C@H](O)CC2)c(OC[C@H]2C[C@H]2c2ccc3ccccc3n2)n1 [Example 192, Trans-4-(2-methyl-4-(((1S,2R)-2-(quinolin-2-yl)cyclopropyl)methoxy)pyrimidin-5-yl)cyclohexanol] |
| 70 | Cc1ncc([C@H]2CC[C@@H](O)CC2)c(OC[C@H]2C[C@H]2c2ccc3ccccc3n2)n1 [Example 193, (1R,4s)-4-(2-methyl-4-(((1S,2R)-2-(quinolin-2-yl)cyclopropyl)methoxy)pyrimidin-5-yl)cyclohexanol] |
| 2980 | CCc1ccc([C@@H]2C[C@@H]2COc2nc(C)ncc2C2CCC3(CC2)OCCO3)nc1 [Example 194, 4-(((1S,2R)-2-(5-ethylpyridin-2-yl)cyclopropyl)methoxy)-2-methyl-5-(1,4-dioxaspiro[4.5]decan-8-yl)pyrimidine] |

| SMILES | Ki [pM] |
| --- | --- |
| Cc1ccc([C@H]2C[C@@H]2COc2nc(C)ncc2-c2ccc(C(O)C(F)(F)F)nc2)nc1 (stereo partly drawn) [Example 145, 2,2,2-trifluoro-1-(5-(2-methyl-4-(((1S,2S)-2-(5-methylpyridin-2-yl)cyclopropyl)methoxy)pyrimidin-5-yl)pyridin-2-yl)ethanol] | 540 |
| Cc1ccc([C@H]2C[C@@H]2COc2nc(C)ncc2-c2ccc(C(O)C(F)(F)F)nc2)nc1 (stereo partly shown) [Example 146] | 250 |
